Source: patent US20220227729A1, “IDENTIFICATION AND USE OF KRAS INHIBITORS” (Bayer Aktiengesellschaft, priority 2019, published 2022)

How the values were obtained:
KRAS^G12C = KRAS^G12C (Homo sapiens, UniProt P01116, G12C); experiment: KRAS G12C activation by SOS1cat assay (On-assay), HTRF; details: SOS1cat mediated loading of GST-KRAS G12C-GDP with fluorescent GTP analogue; 180 min preincubation; 20° C.; read-out: IC50 value biochemical KRAS^G12C activation assay
Description: (§1) Preparation of test compound dilutions. A 100-fold concentrated solution of the test compound (50 nL) in DMSO was transferred to microtiter test plates (384 or 1,536 wells, Greiner Bio-One, Germany) using either a Hummingbird liquid handler (Digilab, MA, USA) or an Echo acoustic system (Labcyte, CA, USA). Plates were sealed with adhesive foil or heat-sealed and stored at −20° C. until use. Serial dilutions of test compounds were prepared in 100% DMSO using a Precision Pipetting System (BioTek, USA).
(§2) Measurement and evaluation of inhibition data, calculation of IC50 values. Homogeneous time-resolved fluorescence (HTRF) was measured with a PHERAstar reader (BMG, Germany) using the HTRF module (excitation: 337 nm; emission 1: 620 nm, emission 2: 665 nm). The ratio of the emissions at 665 and 620 nm was used as the specific signal for further evaluation. The data were normalized using the controls: DMSO=0% inhibition, inhibition control wells with inhibitor control solution=100% inhibition. Compounds were tested in duplicates at up to 11 concentrations (e.g. 20 μM, 5.7 μM, 1.6 μM, 0.47 μM, 0.13 μM, 38 nM, 11 nM, 3.1 nM, 0.89 nM, 0.25 nM and 0.073 nM). IC50 values were calculated using a four-parameter fit, with a commercial software package (Genedata Screener, Switzerland).
(§3) KRAS^G12C activation by SOS1^cat assay (“On-assay”). This assay quantifies SOS1^cat mediated loading of KRAS^G12C-GDP with a fluorescent GTP analogue. Detection of successful loading was achieved by measuring resonance energy transfer from anti-GST-terbium (FRET donor) bound to GST-KRAS^G12c to the loaded fluorescent GTP analogue (FRET acceptor). The fluorescent GTP analogue EDA-GTP-DY-647P1 [2′/3′-O-(2-aminoethyl-carbamoyl)guanosine-5′-triphosphate labelled with DY-647P1 (Dyomics GmbH, Germany)] was synthesized by Jena Bioscience (Germany) and supplied as a 1 mM aqueous solution. A KRAS^G12C working solution was prepared in assay buffer [10 mM HEPES pH 7.4 (AppliChem), 150 mM NaCl (Sigma), 5 mM MgCl2 (Sigma), 1 mM DTT (Thermo Fisher), 0.05% BSA Fraction V pH 7.0 (ICN Biomedicals), 0.0025% (v/v) Igepal (Sigma)] containing 100 nM GST-KRAS^G12C and 2 nM anti-GST-terbium (Cisbio, France). A SOS1^cat working solution was prepared in assay buffer containing 20 nM SOS1^cat and 200 nM EDA-GTP-DY-647P1. An inhibitor control solution was prepared in assay buffer containing 200 nM EDA-GTP-DY-647P1 without SOS1^cat. All steps of the assay were performed at 20° C. A volume of 2.5 μL of the KRAS^G12C working solution was added to all wells of the test plate using a Multidrop dispenser (Thermo LabSystems). After 180 min, 2.5 μL of the SOS1^cat working solution was added to all wells, except for the inhibitor control solution wells. After 30 min incubation, HTRF was measured.

KRAS^WT = KRAS^WT (Homo sapiens, UniProt P01116); experiment: Wild-type KRAS activation by SOS1cat assay, HTRF; details: SOS1cat mediated loading of GST-KRAS WT-GDP with fluorescent GTP analogue; 50 nM GST-KRAS WT; read-out: IC50 value biochemical KRAS^wt activation assay
Description: as §1, §2, §3
Wild-type KRAS activation by SOS1^cat assay. This assay quantifies human SOS1^cat mediated loading of wild-type GST-KRAS^WT-GDP with a fluorescent GTP analogue. The assay was performed similar to the KRAS^G12C activation by SOS1^cat assay. GST-KRAS^G12C was replaced by GST-KRAS^WT, which was used at 50 nM final concentration.

[1] = molecular target: recombinant kRas mutant (G12C; C51S; C80L; C118S) (Homo sapiens, UniProt P01116, C118S/C51S/C80L/G12C); experiment: Covalent binding assay, intact mass LC-MS; details: 25 μM protein, 25 μM compound, room temperature, 2 h
Description: The percentage of covalent adduct formation at KRas G12C was determined by intact mass determination. To this end 25 μM recombinant kRas mutant (G12C; C51S; C80L; C118S) (storage buffer: 50 mM Tris, pH=8; 50 mM NaCl) were incubated with 25 μM of compound (1% v/v final DMSO concentration) at room temperature for 2 h. For LC-MS analysis the reaction was acidified by adding 4 μL of 4% v/v TFA to 20 μL reaction volume.
Liquid chromatography-mass spectrometry (LC-MS) analysis was performed using a Waters SYNAPT G2-S quadrupole time-of-flight mass spectrometer connected to a Waters nanoAcquity UPLC system. Samples were loaded on a 2.1×5 mm mass prep C4 guard column (Waters) and desalted with a short gradient (3 min.) of increasing concentrations of acetonitrile at a flow rate of 100 μL/min. Spectra were analyzed by using MassLynx v4.1 software and deconvoluted with the MaxEnt1 algorithm.
Percent conversion was determined by the ratio of signal intensities of apo-kRas and kRas+inhibitor.

| Structure (SMILES) | IC50 (KRAS^G12C) | IC50 (KRAS^WT) | Covalent Binding Assay (% binding) [1] |
| --- | --- | --- | --- |
| C=CC(=O)N1CCC(c2nc3ccc(-c4cccnc4N4CCOCC4)cc3c(=O)[nH]2)C1 (stereo not drawn) [Example 20, 6-[2-(Morpholin-4-yl)pyridin-3-yl]-2-[1-(prop-2-enoyl)pyrrolidin-3-yl]quinazolin-4(3H)-one] | > 20 µM | > 20 µM | 3% |
| C=CC(=O)N1CCC(c2nc3cc(Cl)c(-c4c(F)cccc4OC)cc3c(=O)[nH]2)C1 (stereo not drawn) [Example 21, 7-Chloro-6-(2-fluoro-6-methoxyphenyl)-2-[1-(prop-2-enoyl)pyrrolidin-3-yl]quinazolin-4(3H)-one] | > 20 µM | > 20 µM | 26% |
| C=CC(=O)N1CCC(c2nc3cc(Cl)c(-c4ccccc4F)cc3c(=O)[nH]2)C1 (stereo not drawn) [Example 22, 7-Chloro-6-(2-fluorophenyl)-2-[1-(prop-2-enoyl)pyrrolidin-3-yl]quinazolin-4(3H)-one] | 18 µM | > 20 µM | 31% |
| C=CC(=O)N1CCC(c2nc3cc(Cl)c(-c4ccc(F)cc4F)cc3c(=O)[nH]2)C1 (stereo not drawn) [Example 23, 7-Chloro-6-(2,4-difluorophenyl)-2-[1-(prop-2-enoyl)pyrrolidin-3-yl]quinazolin-4(3H)-one] | > 20 µM | > 20 µM | 34% |
| C=CC(=O)N1CCC(c2nc3cc(Cl)c(-c4c(O)cccc4F)cc3c(=O)[nH]2)C1 (stereo not drawn) [Example 24, 7-Chloro-6-(2-fluoro-6-hydroxyphenyl)-2-[1-(prop-2-enoyl)pyrrolidin-3-yl]quinazolin-4(3H)-one] | 9.1 µM | > 20 µM | 53% |
| C=CC(=O)N1CCC(c2nc3cc(Cl)c(-c4c(C)ccc5[nH]ncc45)cc3c(=O)[nH]2)C1 (stereo not drawn) [Example 25, 7-Chloro-6-(5-methyl-1H-indazol-4-yl)-2-[1-(prop-2-enoyl)pyrrolidin-3-yl]quinazolin-4(3H)-one] | 5 µM | > 20 µM | 81% |
| C=CC(=O)N1CCC(c2nc3cc(Cl)c(-c4cccc5ncccc45)cc3c(=O)[nH]2)C1 (stereo not drawn) [Example 26, 7-chloro-2-[1-(prop-2-enoyl)pyrrolidin-3-yl]-6-(quinolin-5-yl)quinazolin-4(3H)-one] | > 19 µM | > 20 µM | 41% |
| C=CC(=O)N1CCC(c2cc3ncc(-c4c(F)cccc4OC)cc3c(=O)[nH]2)C1 (stereo not drawn) [Example 28, 3-(2-Fluoro-6-methoxyphenyl)-7-[1-(prop-2-enoyl)pyrrolidin-3-yl]-1,6-naphthyridin-5(6H)-one] | 10 µM | > 20 µM | 52% |
| C=CC(=O)N1CCC(c2cc3ncc(-c4ccccc4F)cc3c(=O)[nH]2)C1 (stereo not drawn) [Example 30, 3-(2-Fluorophenyl)-7-[1-(prop-2-enoyl)pyrrolidin-3-yl]-1,6-naphthyridin-5(6H)-one] | 5.3 µM | > 20 µM | 69% |
| C=CC(=O)N1CCC(c2cc3ncc(-c4ccc(F)cc4F)cc3c(=O)[nH]2)C1 (stereo not drawn) [Example 31, 3-(2,4-Difluorophenyl)-7-[1-(prop-2-enoyl)pyrrolidin-3-yl]-1,6-naphthyridin-5(6H)-one] | > 14 µM | > 20 µM | 62% |
| C=CC(=O)N1CCC(c2cc3ncc(-c4cccc5ncccc45)cc3c(=O)[nH]2)C1 (stereo not drawn) [Example 32, 7-[1-(Prop-2-enoyl)pyrrolidin-3-yl]-3-(quinolin-5-yl)-1,6-naphthyridin-5(6H)-one] | > 20 µM | > 20 µM | 13% |
| C=CC(=O)N1CCC(c2cc3ncc(-c4ccccc4CC)cc3c(=O)[nH]2)C1 (stereo not drawn) [Example 33, 3-(2-Ethylphenyl)-7-[1-(prop-2-enoyl)pyrrolidin-3-yl]-1,6-naphthyridin-5(6H)-one] | 6.8 µM | > 20 µM | 60% |
| C=CC(=O)N1CCC(c2cc3ncc(-c4sc(C)nc4C)cc3c(=O)[nH]2)C1 (stereo not drawn) [Example 34, 3-(2,4-Dimethyl-1,3-thiazol-5-yl)-7-[1-(prop-2-enoyl)pyrrolidin-3-yl]-1,6-naphthyridin-5(6H)-one] | > 20 µM | > 20 µM | 0% |
| C=CC(=O)N1CCC(c2cc3ncc(-c4cccnc4N4CCOCC4)cc3c(=O)[nH]2)C1 (stereo not drawn) [Example 35, 3-[2-(Morpholin-4-yl)pyridin-3-yl]-7-[1-(prop-2-enoyl)pyrrolidin-3-yl]-1,6-naphthyridin-5(6H)-one] | > 20 µM | > 20 µM | 0% |
| C=CC(=O)N1CCC(c2cc3ncc(-c4cc(O)ccc4F)cc3c(=O)[nH]2)C1 (stereo not drawn) [Example 36, 3-(2-Fluoro-5-hydroxyphenyl)-7-[1-(prop-2-enoyl)pyrrolidin-3-yl]-1,6-naphthyridin-5(6H)-one] | 2.7 µM | > 20 µM | 85% |
| C=CC(=O)N1CCC(c2cc3ncc(-c4ccc(F)c(O)c4)cc3c(=O)[nH]2)C1 (stereo not drawn) [Example 37, 3-(4-Fluoro-3-hydroxyphenyl)-7-[1-(prop-2-enoyl)pyrrolidin-3-yl]-1,6-naphthyridin-5(6H)-one] | > 20 µM | > 20 µM | 21% |
| C=CC(=O)N1CCC(c2nc3ccc(-c4c(O)cccc4F)nc3c(=O)[nH]2)C1 (stereo not drawn) [Example 38, 6-(2-Fluoro-6-hydroxyphenyl)-2[1-(prop-2-enoyl)pyrrolidin-3-yl]pyrido[3,2-d]pyrimidin-4(3H)-one] | > 20 µM | > 20 µM | 0% |
| C=CC(=O)N1CCC(c2nc3cnc(-c4c(O)cccc4F)cc3c(=O)[nH]2)C1 (stereo not drawn) [Example 39, 6-(2-Fluoro-6-hydroxyphenyl)-2-[1-(prop-2-enoyl)pyrrolidin-3-yl]pyrido[3,4-d]pyrimidin-4(3H)-one] | 2.6 µM | > 20 µM | 73% |
| C=CC(=O)N1CCC(c2nc3cnc(-c4c(C)ccc5[nH]ncc45)cc3c(=O)[nH]2)C1 (stereo not drawn) [Example 40, 6-(5-Methyl-1H-indazol-4-yl)-2-[1-(prop-2-enoyl)pyrrolidin-3-yl]pyrido[3,4-d]pyrimidin-4(3H)-one] | 4.7 µM | > 20 µM | 66% |
| C=CC(=O)N1CCC(c2cc3cnc(-c4c(F)cccc4OC)cc3c(=O)[nH]2)C1 (stereo not drawn) [Example 41, 7-(2-Fluoro-6-methoxyphenyl)-3-[1-(prop-2-enoyl)pyrrolidin-3-yl]-2,6-naphthyridin-1(2H)-one] | > 20 µM | > 20 µM | 32% |
